From patent publication US7071169B2, “Pyrane derivatives as both ACE-and NEP-inhibitors” (Novartis AG, priority 2001, dated 2006) come the findings set out here.

Experiment [1] has as its system spontaneously hypertensive rat (SHR). Description: antihypertensive activity in conscious spontaneously hypertensive rat (SHR). The experiment is classed as in vivo. Conditions: 11.6 mg/kg p.o. The source says: The antihypertensive activity can be determined, e.g., in the spontaneously hypertensive rat (SHR) and the desoxy-corticosterone acetate (DOCA)-salt hypertensive rat, e.g., according to Trapani et al., J. Cardiovasc. Pharmacol., Vol. 14, pp. 419–424 (1989).

The test system of experiment [2] is angiotensin I induced pressor response. Nature of the experiment: inhibition of the angiotensin I induced pressor response in normotensive rats. The experiment is classed as in vivo, rat. Conditions: 10 mg/kg p.o., for 4 hours. As for the experimental part:
The in vivo test for i.v. administered compounds is performed with male, normotensive rats, which are anesthetized with sodium metofan. A femoral artery and femoral vein are cannulated respectively for direct blood pressure measurement on i.v. administration of angiotensin I and i.v. or p.o. administration of a compound of this invention. After the basal blood pressure is stabilized, pressor responses to 3 challenges of 300 ng/kg angiotensin I i.v., at 15 minute intervals, are obtained. Such pressure responses are usually again obtained at 15, 30, 60 and 90 minutes, and then every hour up to 6 hours after i.v. or p.o. administration of the compound to be tested, and compared with the initial responses. Any observed decrease of said pressor response is an indication of ACE inhibition.

For the next experiment, the target named is ACE (Homo sapiens, UniProt P12821). Description: in vitro inhibition of ACE (hippuryl-histidyl-leucine hydrolysis). The experiment is classed as biochemical. As to conditions: ACE in vitro assay. As for the experimental part: (§1) In vitro testing is most appropriate for the free carboxylic acids of the invention. The test compound is dissolved in dimethyl sulfoxide, ethanol, or 0.25M sodium bicarbonate solution, and the solution is diluted with buffer to the desired concentration.
The buffer for the ACE assay is 300 mM NaCl, 100 mM KH2PO4 (pH 8.3). The reaction is initiated by the addition of 100 μL of hippuryl-histidyl-leucine (2 mg/mL) to tubes containing enzyme and drug in a volume of 150 μL and tubes are incubated for 30 minutes at 37° C. The reaction is terminated by the addition of 0.75 mL 0.6N NaOH. 100 μL of freshly prepared o-phthalaldehyde solution (2 mg/mL in methanol) is added to the tubes, the contents are mixed and allowed to stand at room temperature. After 10 minutes, 100 μL of 6N HCl is added. The tubes are centrifuged and the supernatant optical density is read at 360 nm. The results are plotted against drug concentration to determine the IC50, i.e., the drug concentration which gives half the activity of the control sample containing no drug.

The target in a further experiment is T1, NEP (EC 3.4.24.11) (Rattus norvegicus, UniProt P07861).
T1 construct: rat kidney cortex membranes prepared by method of Maeda et al. (1983); from tissue; host or cells: rat kidney cortex membranes
T1 sequence (P07861 1-750): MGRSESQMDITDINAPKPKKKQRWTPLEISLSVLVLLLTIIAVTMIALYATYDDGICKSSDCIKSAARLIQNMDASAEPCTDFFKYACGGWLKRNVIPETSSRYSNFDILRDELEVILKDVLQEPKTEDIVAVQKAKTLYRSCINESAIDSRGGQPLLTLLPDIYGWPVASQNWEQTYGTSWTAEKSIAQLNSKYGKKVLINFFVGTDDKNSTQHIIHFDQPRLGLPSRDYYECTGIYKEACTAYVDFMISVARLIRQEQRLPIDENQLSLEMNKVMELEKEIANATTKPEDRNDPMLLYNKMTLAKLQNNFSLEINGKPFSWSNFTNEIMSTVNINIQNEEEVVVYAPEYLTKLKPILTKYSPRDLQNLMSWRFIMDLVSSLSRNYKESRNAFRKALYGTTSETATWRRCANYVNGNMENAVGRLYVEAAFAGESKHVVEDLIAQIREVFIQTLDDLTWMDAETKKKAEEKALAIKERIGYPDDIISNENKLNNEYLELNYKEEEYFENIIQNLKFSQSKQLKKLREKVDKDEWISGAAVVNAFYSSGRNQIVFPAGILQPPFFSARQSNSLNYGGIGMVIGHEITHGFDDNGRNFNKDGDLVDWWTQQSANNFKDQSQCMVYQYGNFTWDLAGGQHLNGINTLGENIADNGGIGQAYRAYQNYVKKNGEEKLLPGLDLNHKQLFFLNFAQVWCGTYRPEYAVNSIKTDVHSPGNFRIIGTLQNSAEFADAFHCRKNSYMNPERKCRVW
Description: in vitro inhibition of NEP (hydrolysis of glutaryl-Ala-Ala-Phe-2-naphthylamide, GAAP assay). Conditions: rat kidney cortex membranes. The experiment is classed as biochemical. As for the experimental part: as §1
The in vitro inhibition of NEP (EC 3.4.24.11) can be determined as follows:
NEP 3.4.24.11 activity is determined by the hydrolysis of the substrate glutaryl-Ala-Ala-Phe-2-naphthylamide […] using a modified procedure of Orlowski and Wilk (1981). The incubation mixture (total volume 125 μL) contains 4.2 μL of protein (rat kidney cortex membranes prepared by method of Maeda et al. (1983), 50 mM tris buffer, pH 7.4 at 25°0 C., 500 μM substrate (final concentration), and leucine aminopeptidase M (2.5 μg). The mixture is incubated for 10 minutes at 25° C., and 100 μL of fast garnet (250 μg fast garnet/mL of 10% Tween 20 in 1M sodium acetate pH 4.2) is added. Enzyme activity is measured spectrophotometrically at 540 nm. One unit of NEP 24.11 activity is defined as 1 nmol of 2-naphthylamine released per minute at 25° C. at pH 7.4. IC50 values are determined, i.e., the concentration of test compound required for 50% inhibition of the release of 2-naphthylamine.

Experiment [3] addresses rabbit antibodies that recognize specifically the carboxyl terminal tryptophan of ET-1. Nature of the experiment: RIA: displacement of [125I]ET-1 binding to anti-ET-1 antibodies. As to conditions: mean±SEM, n=3–5. As for the experimental part:
Diluted samples ([…]) obtained from the above enzyme assay are incubated at 4° C. overnight with 25 μL each of [^125I]ET-1 (10,000 cpm/tube) and 1:20,000-fold diluted rabbit antibodies that recognize specifically the carboxyl terminal tryptophan of ET-1. Goat anti-rabbit antibodies coupled to magnetic beads (70 μg) are then added to each tube, and the reaction mixture is further incubated for 30 minutes at room temperature. The beads are pelleted using a magnetic rack. The supernatant is decanted, and the radioactivity in the pellet is counted in a gamma counter. Total and non-specific binding are measured in the absence of non-radioactive ET-1 and anti-ET antibodies, respectively.

Bridges are numbered along the chain shown (N, C = ends). Where no end group is shown, it is not given here.

Sequence of ACE (P12821 30-1306, species assumed): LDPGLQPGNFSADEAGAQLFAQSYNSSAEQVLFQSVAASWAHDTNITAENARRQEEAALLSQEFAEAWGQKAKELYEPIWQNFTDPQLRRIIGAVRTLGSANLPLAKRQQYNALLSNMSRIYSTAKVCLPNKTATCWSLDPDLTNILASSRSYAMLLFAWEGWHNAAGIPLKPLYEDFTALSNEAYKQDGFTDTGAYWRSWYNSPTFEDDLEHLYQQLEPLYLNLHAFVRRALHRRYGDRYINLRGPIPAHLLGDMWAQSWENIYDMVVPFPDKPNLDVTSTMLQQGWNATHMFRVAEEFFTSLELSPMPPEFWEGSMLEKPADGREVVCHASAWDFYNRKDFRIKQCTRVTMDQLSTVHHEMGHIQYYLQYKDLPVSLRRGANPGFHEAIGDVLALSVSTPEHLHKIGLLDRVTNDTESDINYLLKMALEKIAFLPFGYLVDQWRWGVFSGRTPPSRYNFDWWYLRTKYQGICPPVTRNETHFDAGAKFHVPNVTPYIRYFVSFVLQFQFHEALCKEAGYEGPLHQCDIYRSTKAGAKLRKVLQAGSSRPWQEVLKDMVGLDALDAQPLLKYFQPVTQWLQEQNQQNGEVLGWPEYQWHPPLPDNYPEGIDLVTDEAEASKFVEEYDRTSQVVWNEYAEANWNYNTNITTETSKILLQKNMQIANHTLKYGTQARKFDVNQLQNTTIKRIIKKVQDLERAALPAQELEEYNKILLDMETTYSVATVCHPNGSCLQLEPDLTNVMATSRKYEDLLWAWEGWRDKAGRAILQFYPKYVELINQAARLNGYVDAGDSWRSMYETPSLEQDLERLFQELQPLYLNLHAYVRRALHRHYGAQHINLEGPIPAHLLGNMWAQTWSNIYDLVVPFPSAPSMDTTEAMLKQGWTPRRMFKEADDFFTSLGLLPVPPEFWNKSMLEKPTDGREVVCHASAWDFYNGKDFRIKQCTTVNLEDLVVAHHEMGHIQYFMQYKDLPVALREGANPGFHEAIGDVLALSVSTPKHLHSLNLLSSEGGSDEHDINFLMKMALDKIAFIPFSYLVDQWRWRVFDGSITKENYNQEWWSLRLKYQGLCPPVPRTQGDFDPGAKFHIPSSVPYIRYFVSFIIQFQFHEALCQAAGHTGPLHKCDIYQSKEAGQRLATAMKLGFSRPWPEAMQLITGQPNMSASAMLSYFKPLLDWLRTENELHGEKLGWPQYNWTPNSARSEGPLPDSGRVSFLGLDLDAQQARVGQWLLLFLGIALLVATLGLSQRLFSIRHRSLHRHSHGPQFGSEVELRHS

On to `CCOC(=O)[C@H](Cc1ccc(OC)cc1)NC(=O)C(C)(C)NC(=O)[C@@H](SC(C)=O)C1CCOCC1` [Example 1f, N-[2-[(S)-2-acetylthio-2-(4-tetrahydropyranyl)-acetylamino]-2-methylpropionyl]-(L)-4-methoxyphenylalanine ethyl ester], for which the “reduction of mean arterial pressure” value in experiment [1] is “about 16 mm Hg”. The “inhibition of the angiotensin I induced pressor response” value in experiment [2] is 98%. Take `COc1ccc(C[C@H](NC(=O)C(C)(C)NC(=O)[C@@H](S)C2CCOCC2)C(=O)O)cc1` [Example 2g, N-[2-[(S)-2-mercapto-2-(4-tetrahydropyranyl)-acetylamino]-2-methylpropionyl]-(L)-4-methoxyphenylalanine]: the IC50 against ACE was roughly 5.9 nM; against NEP (EC 3.4.24.11) it was roughly 4.8 nM.

In the case of “ET-1: non-radioactive ET-1, the peptide formed from big ET-1 by ECE and measured by RIA”, the “IC50 for displacement of [125I]ET-1 binding to the antibodies” value in experiment [3] amounted to 21 ± 2 fmol. For the compound “big ET-1: ECE substrate from which ET-1 is formed; added in the ECE-1 assay (CSCSSLMDKECVYFCHLDIIWVNTPEHVVPYGLGSPRS; disulfide 1-15, 3-11; ends not checked; UniProt P05305 53-90, looked up)”, the “IC50 for displacement of [125I]ET-1 binding to the antibodies” value in experiment [3] was 260,000±66,000 fmol.
